# From ChEMBL document CHEMBL4393691, “Design, synthesis and antitumor evaluation of novel celastrol derivatives” (Eur J Med Chem, 2019)
# The source made the active and inactive calls. No cut-off for these calls is given here.
# Tests used:
# MCF7 [1] = assay: Antiproliferative activity against human MCF7 cells assessed as reduction in cell viability at 1 uM incubated for 48 hrs by MTT assay relative to control; format: functional; details: MCF7, 48 h
# MCF7 [2] = assay: cells; details: Homo sapiens, MCF7, 48 h
# A549 [3] = assay: cells; details: Homo sapiens, A549, 48 h
# HepG2 = assay: Cytotoxicity against human HepG2 cells assessed as reduction in cell viability incubated for 48 hrs by MTT assay; format: functional, cell-based; details: HepG2, 48 h
# A549 [4] = assay: Induction of apoptosis in human A549 cells assessed as viable cells at 2 uM incubated for 24 hrs by AnnexinV-FITC/propidium iodide staining-based flow cytometric analysis (reference value: 88.1%); format: functional; details: A549, 24 h, read-out: Activity
# A549 [5] = assay: Induction of apoptosis in human A549 cells assessed as early apoptotic cells at 2 uM incubated for 24 hrs by AnnexinV-FITC/propidium iodide staining-based flow cytometric analysis (reference value: 4.1%); format: functional
# A549 [6] = assay: Induction of apoptosis in human A549 cells assessed as late apoptotic cells at 2 uM incubated for 24 hrs by AnnexinV-FITC/propidium iodide staining-based flow cytometric analysis (reference value: 4.2%); format: functional
# A549 [7] = assay: Inhibition of Hsp90-Cdc37 interaction in human A549 cells assessed as decrease in Cdc37 protein level at 5 uM incubated for 6 hrs by immunoprecipitation assay; format: cell-based
# A549 [8] = assay: Induction of apoptosis in human A549 cells assessed as necrotic cells at 2 uM incubated for 24 hrs by AnnexinV-FITC/propidium iodide staining-based flow cytometric analysis (reference value: 3.6%); format: functional
Structure (SMILES),inhibition at 1 µM (MCF7 [1]),also measured
COC(=O)/C(C#N)=C/c1ccc(OCCOC(=O)[C@]2(C)CC[C@]3(C)CC[C@]4(C)C5=CC=C6C(=CC(=O)C(O)=C6C)[C@]5(C)CC[C@@]4(C)[C@@H]3C2)c(OC)c1,59.9%,
COC(=O)/C=C/c1ccc(OCCCOC(=O)[C@]2(C)CC[C@]3(C)CC[C@]4(C)C5=CC=C6C(=CC(=O)C(O)=C6C)[C@]5(C)CC[C@@]4(C)[C@@H]3C2)c(OC)c1,78.5%,IC50 (MCF7 [2]): 450 nM; IC50 (A549 [3]): 560 nM; IC50 (HepG2): 530 nM
COC(=O)/C=C/c1cc(OC)c(OCCOC(=O)[C@]2(C)CC[C@]3(C)CC[C@]4(C)C5=CC=C6C(=CC(=O)C(O)=C6C)[C@]5(C)CC[C@@]4(C)[C@@H]3C2)c(OC)c1,60.3%,IC50 (MCF7 [2]): 880 nM; IC50 (A549 [3]): 1070 nM; IC50 (HepG2): 890 nM
COC(=O)/C=C/c1ccc(OCCOC(=O)[C@]2(C)CC[C@]3(C)CC[C@]4(C)C5=CC=C6C(=CC(=O)C(O)=C6C)[C@]5(C)CC[C@@]4(C)[C@@H]3C2)cc1,63.9%,IC50 (MCF7 [2]): 670 nM; IC50 (A549 [3]): 600 nM; IC50 (HepG2): 600 nM
COC(=O)/C(C#N)=C/c1ccc(OCCCOC(=O)[C@]2(C)CC[C@]3(C)CC[C@]4(C)C5=CC=C6C(=CC(=O)C(O)=C6C)[C@]5(C)CC[C@@]4(C)[C@@H]3C2)c(F)c1,18.8%,
COC(=O)/C(C#N)=C/c1ccc(OCCCOC(=O)[C@]2(C)CC[C@]3(C)CC[C@]4(C)C5=CC=C6C(=CC(=O)C(O)=C6C)[C@]5(C)CC[C@@]4(C)[C@@H]3C2)cc1,22.1%,
COC(=O)/C(C#N)=C\c1ccc(OC)c(OCCCOC(=O)[C@]2(C)CC[C@]3(C)CC[C@]4(C)C5=CC=C6C(=CC(=O)C(O)=C6C)[C@]5(C)CC[C@@]4(C)[C@@H]3C2)c1,65.9%,IC50 (MCF7 [2]): 640 nM; IC50 (A549 [3]): 780 nM; IC50 (HepG2): 710 nM
COC(=O)/C(C#N)=C\c1cccc(OCCCOC(=O)[C@]2(C)CC[C@]3(C)CC[C@]4(C)C5=CC=C6C(=CC(=O)C(O)=C6C)[C@]5(C)CC[C@@]4(C)[C@@H]3C2)c1,47%,
COC(=O)/C(C#N)=C/c1ccc(OCCCOC(=O)[C@]2(C)CC[C@]3(C)CC[C@]4(C)C5=CC=C6C(=CC(=O)C(O)=C6C)[C@]5(C)CC[C@@]4(C)[C@@H]3C2)cc1OC,11%,
COC(=O)/C=C/c1ccc(OCCCOC(=O)[C@]2(C)CC[C@]3(C)CC[C@]4(C)C5=CC=C6C(=CC(=O)C(O)=C6C)[C@]5(C)CC[C@@]4(C)[C@@H]3C2)cc1,50.5%,
COC(=O)/C=C/c1cc(OC)c(OCCCCOC(=O)[C@]2(C)CC[C@]3(C)CC[C@]4(C)C5=CC=C6C(=CC(=O)C(O)=C6C)[C@]5(C)CC[C@@]4(C)[C@@H]3C2)c(OC)c1,7.52%,
COC(=O)/C=C\c1ccc(OC)c(OCCCOC(=O)[C@]2(C)CC[C@]3(C)CC[C@]4(C)C5=CC=C6C(=CC(=O)C(O)=C6C)[C@]5(C)CC[C@@]4(C)[C@@H]3C2)c1,67.4%,IC50 (MCF7 [2]): 670 nM; IC50 (A549 [3]): 700 nM; IC50 (HepG2): 650 nM
COC(=O)/C(C#N)=C\c1ccc(OC)c(OC/C=C/COC(=O)[C@]2(C)CC[C@]3(C)CC[C@]4(C)C5=CC=C6C(=CC(=O)C(O)=C6C)[C@]5(C)CC[C@@]4(C)[C@@H]3C2)c1,45.6%,
COC(=O)/C(C#N)=C/c1ccc(OCCCOC(=O)[C@]2(C)CC[C@]3(C)CC[C@]4(C)C5=CC=C6C(=CC(=O)C(O)=C6C)[C@]5(C)CC[C@@]4(C)[C@@H]3C2)c(OC)c1,66.5%,IC50 (MCF7 [2]): 650 nM; IC50 (A549 [3]): 660 nM; IC50 (HepG2): 750 nM
CC1=C(O)C(=O)C=C2C1=CC=C1[C@@]2(C)CC[C@@]2(C)[C@@H]3C[C@](C)(C(=O)O)CC[C@]3(C)CC[C@]12C [CELASTROL],60.2%,IC50 (MCF7 [2]): 1060 nM; IC50 (A549 [3]): 1280 nM; viability at 2 µM (A549 [4]): 64.1%; Activity (A549 [5]): 14.9%; Activity (A549 [6]): 16.1%; inhibition (A549 [7]): Active; IC50 (HepG2): 1330 nM; Activity (A549 [8]): 4.8%
COC(=O)/C(C#N)=C/c1ccc(OCCCOC(=O)[C@]2(C)CC[C@]3(C)CC[C@]4(C)C5=CC=C6C(=CC(=O)C(O)=C6C)[C@]5(C)CC[C@@]4(C)[C@@H]3C2)cc1F,8.36%,
COC(=O)[C@]12CCC(C)(C)C[C@H]1[C@H]1C(=O)C=C3[C@@]4(C)C=C(C#N)C(=O)C(C)(C)[C@@H]4CC[C@@]3(C)[C@]1(C)CC2 [BARDOXOLONE METHYL],,IC50 (MCF7 [2]): 350 nM; IC50 (A549 [3]): 360 nM; IC50 (HepG2): 260 nM

Structure (SMILES),inhibition at 1 µM (MCF7 [1]),also measured
COC(=O)/C=C\c1cccc(OCCCOC(=O)[C@]2(C)CC[C@]3(C)CC[C@]4(C)C5=CC=C6C(=CC(=O)C(O)=C6C)[C@]5(C)CC[C@@]4(C)[C@@H]3C2)c1,33%,
COC(=O)/C(C#N)=C\c1ccc(OC)c(OCCCCOC(=O)[C@]2(C)CC[C@]3(C)CC[C@]4(C)C5=CC=C6C(=CC(=O)C(O)=C6C)[C@]5(C)CC[C@@]4(C)[C@@H]3C2)c1,27.4%,
COC(=O)/C=C/c1ccc(OCCCCOC(=O)[C@]2(C)CC[C@]3(C)CC[C@]4(C)C5=CC=C6C(=CC(=O)C(O)=C6C)[C@]5(C)CC[C@@]4(C)[C@@H]3C2)cc1,0.94%,
COC(=O)/C(C#N)=C\c1ccc(OC)c(OCCOC(=O)[C@]2(C)CC[C@]3(C)CC[C@]4(C)C5=CC=C6C(=CC(=O)C(O)=C6C)[C@]5(C)CC[C@@]4(C)[C@@H]3C2)c1,79.7%,IC50 (MCF7 [2]): 300 nM; IC50 (A549 [3]): 460 nM; IC50 (HepG2): 370 nM
COC(=O)/C=C/c1ccc(OC/C=C/COC(=O)[C@]2(C)CC[C@]3(C)CC[C@]4(C)C5=CC=C6C(=CC(=O)C(O)=C6C)[C@]5(C)CC[C@@]4(C)[C@@H]3C2)c(OC)c1,32.5%,
COC(=O)/C=C/c1cc(OC)c(OCCCOC(=O)[C@]2(C)CC[C@]3(C)CC[C@]4(C)C5=CC=C6C(=CC(=O)C(O)=C6C)[C@]5(C)CC[C@@]4(C)[C@@H]3C2)c(OC)c1,8.61%,
COC(=O)/C(C#N)=C/c1ccc(OCCCOC(=O)[C@]2(C)CC[C@]3(C)CC[C@]4(C)C5=CC=C6C(=CC(=O)C(O)=C6C)[C@]5(C)CC[C@@]4(C)[C@@H]3C2)c(C)c1,21.9%,
COC(=O)/C(C#N)=C/c1ccc(OCCCOC(=O)[C@]2(C)CC[C@]3(C)CC[C@]4(C)C5=CC=C6C(=CC(=O)C(O)=C6C)[C@]5(C)CC[C@@]4(C)[C@@H]3C2)cc1C,19.8%,
COC(=O)/C=C/c1ccc(OCCCCOC(=O)[C@]2(C)CC[C@]3(C)CC[C@]4(C)C5=CC=C6C(=CC(=O)C(O)=C6C)[C@]5(C)CC[C@@]4(C)[C@@H]3C2)c(OC)c1,15.9%,
COC(=O)/C(C#N)=C/c1ccc(OCCCCOC(=O)[C@]2(C)CC[C@]3(C)CC[C@]4(C)C5=CC=C6C(=CC(=O)C(O)=C6C)[C@]5(C)CC[C@@]4(C)[C@@H]3C2)c(OC)c1,13.8%,
COC(=O)/C=C/c1cc(OC)c(OC/C=C/COC(=O)[C@]2(C)CC[C@]3(C)CC[C@]4(C)C5=CC=C6C(=CC(=O)C(O)=C6C)[C@]5(C)CC[C@@]4(C)[C@@H]3C2)c(OC)c1,18%,
COC(=O)/C=C/c1ccc(OC/C=C/COC(=O)[C@]2(C)CC[C@]3(C)CC[C@]4(C)C5=CC=C6C(=CC(=O)C(O)=C6C)[C@]5(C)CC[C@@]4(C)[C@@H]3C2)cc1,5.29%,
COC(=O)/C=C/c1ccc(OCCOC(=O)[C@]2(C)CC[C@]3(C)CC[C@]4(C)C5=CC=C6C(=CC(=O)C(O)=C6C)[C@]5(C)CC[C@@]4(C)[C@@H]3C2)c(OC)c1,27.7%,
COC(=O)/C(C#N)=C/c1ccc(OC/C=C/COC(=O)[C@]2(C)CC[C@]3(C)CC[C@]4(C)C5=CC=C6C(=CC(=O)C(O)=C6C)[C@]5(C)CC[C@@]4(C)[C@@H]3C2)c(OC)c1,25.7%,
COC(=O)/C=C\c1ccc(OC)c(OC/C=C/COC(=O)[C@]2(C)CC[C@]3(C)CC[C@]4(C)C5=CC=C6C(=CC(=O)C(O)=C6C)[C@]5(C)CC[C@@]4(C)[C@@H]3C2)c1,49.2%,
COC(=O)/C=C\c1ccc(OC)c(OCCCCOC(=O)[C@]2(C)CC[C@]3(C)CC[C@]4(C)C5=CC=C6C(=CC(=O)C(O)=C6C)[C@]5(C)CC[C@@]4(C)[C@@H]3C2)c1,40.1%,
